Experimental data from ChEMBL document CHEMBL1275430, “Impact of mycophenolic acid on the functionality of human polymorphonuclear neutrophils and dendritic cells during interaction with Aspergillus fumigatus” (2008).

Legend:
Type in all cases: functional
Aspergillus fumigatus [1] = assay: Effect on polymorphonuclear neutrophil killing of Aspergillus fumigatus assessed as survival rate of fungi (reference value: 53% +/- 11%)
[2] = Inhibition of Aspergillus fumigatus-mediated dendritic cell maturation assessed as decreased CD86 expression at 10 uM
Aspergillus fumigatus [3] = assay: Effect on polymorphonuclear neutrophil killing of Aspergillus fumigatus assessed as survival rate of fungi at 10 ug/ml (reference value: 53% +/- 11%)
[4] = Induction of IL-2 expression in […] dendritic cell co-cultured with Aspergillus fumigatus germ tube at 10 uM after 7 days by RT-PCR
[5] = Inhibition of Aspergillus fumigatus-mediated dendritic cell maturation assessed as decreased CD1a expression at 10 uM
[6] = Inhibition of Aspergillus fumigatus-mediated dendritic cell maturation assessed as decreased CD83 expression at 10 uM
[7] = Induction of TNF-alpha expression in […] dendritic cell co-cultured with Aspergillus fumigatus germ tube at 10 uM after 7 days by RT-PCR
[8] = Inhibition of Aspergillus fumigatus-mediated dendritic cell maturation assessed as decreased CD80 expression at 10 uM
[9] = Induction of oxidative burst of polymorphonuclear neutrophil co-cultured with Aspergillus fumigatus germlings at 10 uM after 120 minutes relative to untreated control
[10] = Induction of oxidative burst of polymorphonuclear neutrophil co-cultured with Aspergillus fumigatus germlings at 10 uM after 60 minutes relative to untreated control
[11] = Inhibition of Aspergillus fumigatus-mediated dendritic cell maturation assessed as decreased CD40 expression at 10 uM

| SMILES | Survival (Aspergillus fumigatus [1]) | inhibition at 10 µM [2] | survival at 10 µg/mL (Aspergillus fumigatus [3]) | Activity [4] | inhibition at 10 µM [5] | inhibition at 10 µM [6] | Activity [7] | inhibition at 10 µM [8] | fold change (FC) [9] | fold change (FC) [10] | inhibition at 10 µM [11] |
| --- | --- | --- | --- | --- | --- | --- | --- | --- | --- | --- | --- |
| CCCCCCCCCCCCCC(=O)O[C@@H]1[C@@H](C)[C@@]2(O)[C@@H](C=C(CO)C[C@]3(O)C(=O)C(C)=C[C@@H]23)[C@@H]2C(C)(C)[C@]12OC(C)=O [PHORBOL MYRISTATE ACETATE] | 26% | – | – | – | – | – | – | – | – | – | – |
| COc1c(C)c2c(c(O)c1C/C=C(\C)CCC(=O)O)C(=O)OC2 [MYCOPHENOLIC ACID] | – | 43.8% | 57% | 94% | 68.8% | 21.1% | 52% | 46.7% | 2.8 | 3.8 | 39.3% |
